Test results: patent publication US9216960B2, “Spiro[2.4]heptanes for treatment of Flaviviridae infections” (University of Georgia Research Foundation, Inc., priority 2012, dated 2015)

How the values were obtained:
[1] = tested on: hepatitis C virus genotype 1A; conditions: Hu7 RNA replicon assay; cited from earlier work
[2] = tested on: hepatitis C virus genotype 1B; conditions: Hu7 RNA replicon assay; cited from earlier work

For `O=c1ccn([C@H]2[C@H](O)[C@H](O)[C@@H](CO)C23CC3)c(=O)[nH]1`, which melting point is on record?
The melting point was 114 to 116 °C.

Which EC50 [1] does the source give for `Nc1ncnc2c1ncn2[C@H]1[C@H](O)[C@H](O)[C@@H](CO)C12CC2` [cyclopropy-spirocarbocyclic adenosine, (4R,5S,6R,7R)-4-(6-amino-9H-pur-9-yl)-7-(hydroxymethyl)spiro[2.4]heptane-5,6 diol] here?
Its EC50 is 273 nM.

What about the EC50 [2] of the same compound?
The EC50 was 368 nM.
